In patent US20090215758A1, “Use of 2,5-Disubstituted Thiazol-4-One Derivatives in Drugs” (Gruenenthal GmbH, priority 2005, published 2009):
Where a name gives a salt, the structure may show the parent alone.

What was measured:
[1] = biological target: T1, vanilloid receptor 1 (VR1/TRPV1) of the rat species (Rattus norvegicus, UniProt O35433); assay: Functional study on vanilloid receptor 1, FLIPR Ca2+ assay in rat dorsal root ganglia cells; format: cell-based; conditions: for inhibition at 10 µM: read-out: VR1 (rat) (% inhibition compared to 10 μM CP); for VR1 (rat) (% stimulation compared to 10 μM CP) / activation at 10 µM: Ca2+ signal relative to 10 μM capsaicin (CP); for activation at 10 µM: read-out: VR1 (rat) (% stimulation compared to 10 μM CP); for EC50: unit inferred
T1 construct: The spinal column is removed from beheaded rats; from tissue; host or cells: primary cells from rat dorsal root ganglia (DRGs)
Description: The agonistic or antagonistic action of the substances to be studied on the vanilloid receptor 1 (VR1/TRPV1) of the rat species can be determined with the following assay. In this assay, the Ca^2+ current through the receptor channel is quantified with the aid of a Ca^2+-sensitive dye (Fluo-4 type, Molecular Probes Europe BV, Leiden the Netherlands) in a fluorescent imaging plate reader (FLIPR, Molecular Devices, Sunnyvale, USA).
Complete medium: 50 ml HAMS F12 Nutrient Mixture (Gibco Invitrogen GmbH, Karlsruhe, Germany) with 10% by volume of FCS (fetal calf serum, Gibco Invitrogen GmbH, Karlsruhe, Germany, heat-inactivated);
2 mM L-glutamine (Sigma, Munich, Germany);
1% by weight of AA solution (antibiotic/antimycotic solution, PAA, Pasching, Austria) and 25 ng/ml of NGF medium (2.5 S, Gibco Invitrogen GmbH, Karlsruhe, Germany)
Cell culture plate: poly-D-lysine-coated, black 96-hole plates with a clear bottom (96 well black/clear plate, BD Biosciences, Heidelberg, Germany) are additionally coated with laminin (Gibco Invitrogen GmbH, Karlsruhe, Germany) by diluting laminin to a concentration of 100 μg/ml with PBS (Ca—Mg-free PBS, Gibco Invitrogen GmbH, Karlsruhe, Germany). Aliquots having a concentration of 100 μg/ml of laminin are withdrawn and stored at −20° C. The aliquots are diluted with PBS in a ratio of 1:10 to 10 μg/ml of laminin and in each case 50 μl of the solution are pipetted into a well of the cell culture plate. The cell culture plates are incubated at 37° C. for at least two hours, the supernatant solution is removed by suction and the wells are each washed twice with PBS. The coated cell culture plates are stored with supernatant PBS which is not removed until directly before the application of the cells.
The spinal column is removed from beheaded rats and placed directly into cold HBSS buffer (Hank's buffered saline solution, Gibco Invitrogen GmbH, Karlsruhe, Germany), i.e. placed in an ice bath, which has been admixed with 1% by volume of an AA solution (antibiotic/antimycotic solution, PAA, Pasching, Austria). The spinal column is severed longitudinally and removed from the spinal canal together with fasciae. Subsequently, the dorsal root ganglia (DRGs) are removed and in turn stored in cold HBSS buffer admixed with 1% by volume of an AA solution. The DRGs freed completely of blood residues and spinal nerves are in each case transferred to 500 μl of cold type 2 collagenase (PAA, Pasching, Austria) and incubated at 37° C. for 35 minutes. […] After complete incubation, the enzyme solution is cautiously pipetted off and the remaining DRGs are each suspended with 500 μl of complete medium.
The DRGs are each suspended repeatedly, drawn through cannulas No. 1, No. 12 and No. 16 by means of a syringe and transferred to 50 ml Falcon tubes which are made up to 15 ml with complete medium. The contents of each Falcon tube are in each case filtered through a 70 μm Falcon filter insert and centrifuged at 1200 revolutions and room temperature for 10 minutes. The resulting pellet is in each case taken up in 250 μl of complete medium and the cell count is determined.
The number of cells in the suspension is adjusted to 3 times 10^5 per ml and in each case 150 μl of this suspension are added to one well of the cell culture plates coated as described above.
Subsequently, the cells are laden with 2 μM Fluo-4 and 0.01% by volume of Pluronic F127 (Molecular Probes Europe BV, Leiden, the Netherlands) in HBSS buffer (Hank's buffered saline solution, Gibco Invitrogen GmbH, Karlsruhe, Germany) at 37° C. for 30 min, washed 3× with HBSS buffer and, after a further incubation of 15 minutes, used in the FLIPR assay at room temperature for Ca^2+ measurement. The Ca^2+-dependent fluorescence is measured before and after addition of substances (λex=488 nm, λem=540 nm). The quantification is effected by the measurement of the highest fluorescence intensity (FC, fluorescence counts) over the time.

[2] = biological target: T2, VR1 (human) (Homo sapiens, UniProt Q8NER1); assay: Functional study on vanilloid receptor (VR1), FLIPR Ca2+ assay in CHO K1 cells stably transfected with the VR1 gene; format: cell-based; conditions: for inhibition at 10 µM / activation at 10 µM: CHO-K1, test compound 10 μM; for activation at 10 µM: read-out: VR1 (human) (% stimulation compared to 10 μM CP); for EC50: unit inferred
T2 construct: expressed in transfected cells; host or cells: CHO K1 cells (ECACC), stably transfected
From the text: The agonistic or antagonistic action of the substances to be tested on vanilloid receptor (VR1) can also be determined with the assay which follows. In this assay, the Ca^2+ current through the channel is quantified with the aid of a Ca^2+-sensitive dye (Fluo-4 type, Molecular Probes, Europe BV, Leiden, the Netherlands) in a fluorescent imaging plate reader (FLIPR, Molecular Devices, Sunnyvale, USA).
Chinese hamster ovary cells (CHO K1 cells, European Collection of Cell Cultures (ECACC) Great Britain) are transfected stably with the VR1 gene. For functional studies, these cells are plated out onto poly-D-lysine-coated black 96-well plates with a clear bottom (BD Biosciences, Heidelberg, Germany) in a density of 25 000 cells/well. The cells are incubated overnight at 37° C. and 5% CO2 in a culture medium (Ham's Nutrient Mixture F12, 10% by volume of FCS (fetal calf serum), 18 μg/ml of L-proline). The next day, the cells are incubated with Fluo-4 (Fluo-4 2 μM, Pluronic F127 0.01% by volume, Molecular Probes in HBSS (Hank's buffered saline solution), Gibco Invitrogen GmbH, Karlsruhe, Germany) at 37° C. for 30 minutes. Subsequently, the plates are washed 3 times with HBSS buffer and, after a further incubation of 15 minutes at room temperature, used for Ca^2+ measurement in FLIPR. The Ca^2+-dependent fluorescence is measured before and after addition of the substances to be studied (wavelength λex=488 nm, λem=540 nm). The quantification is effected by measuring the highest fluorescence intensity (FC, fluorescence counts) over the time.
The FLIPR protocol consists of 2 substance additions. First, the substances to be tested (10 μM) are pipetted onto the cells and the Ca current is compared with the control (capsaicin 10 μM) (% activation based on the Ca^2+ signal after addition of 10 μM capsaicin). After incubation for 5 minutes, 100 nM capsaicin is applied and the current of Ca^2+ is likewise determined.

[3] = test compound 10 μM, 5 min incubation, then 100 nM capsaicin, relative to maximum inhibition with 10 μM capsaicin
[4] = 5 min incubation, then 100 nM capsaicin, compared to 10 μM CP
[5] = Ca2+ signal relative to 10 μM capsaicin (CP)

T2 sequence (Q8NER1 whole entry): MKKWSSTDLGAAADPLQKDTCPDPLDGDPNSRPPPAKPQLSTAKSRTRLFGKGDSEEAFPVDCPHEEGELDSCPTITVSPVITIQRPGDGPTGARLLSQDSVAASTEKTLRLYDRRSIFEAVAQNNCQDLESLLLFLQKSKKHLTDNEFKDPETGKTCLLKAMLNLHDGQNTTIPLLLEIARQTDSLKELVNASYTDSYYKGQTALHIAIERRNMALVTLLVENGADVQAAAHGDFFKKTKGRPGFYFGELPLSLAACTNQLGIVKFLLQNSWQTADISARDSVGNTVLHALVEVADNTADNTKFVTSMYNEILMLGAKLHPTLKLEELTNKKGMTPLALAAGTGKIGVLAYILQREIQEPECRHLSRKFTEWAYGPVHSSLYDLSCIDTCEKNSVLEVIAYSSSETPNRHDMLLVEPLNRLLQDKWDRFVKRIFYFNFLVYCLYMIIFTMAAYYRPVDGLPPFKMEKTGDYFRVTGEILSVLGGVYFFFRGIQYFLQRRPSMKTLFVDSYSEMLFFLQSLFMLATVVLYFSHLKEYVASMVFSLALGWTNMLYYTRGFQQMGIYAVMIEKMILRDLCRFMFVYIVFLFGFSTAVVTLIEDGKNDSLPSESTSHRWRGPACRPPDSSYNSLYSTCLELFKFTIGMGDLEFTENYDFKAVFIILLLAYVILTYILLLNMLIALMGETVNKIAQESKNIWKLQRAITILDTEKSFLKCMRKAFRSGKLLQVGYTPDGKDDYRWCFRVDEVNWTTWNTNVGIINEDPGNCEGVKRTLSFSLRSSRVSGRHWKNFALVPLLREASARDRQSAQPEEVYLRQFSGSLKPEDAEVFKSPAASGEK
T1 sequence (O35433 whole entry): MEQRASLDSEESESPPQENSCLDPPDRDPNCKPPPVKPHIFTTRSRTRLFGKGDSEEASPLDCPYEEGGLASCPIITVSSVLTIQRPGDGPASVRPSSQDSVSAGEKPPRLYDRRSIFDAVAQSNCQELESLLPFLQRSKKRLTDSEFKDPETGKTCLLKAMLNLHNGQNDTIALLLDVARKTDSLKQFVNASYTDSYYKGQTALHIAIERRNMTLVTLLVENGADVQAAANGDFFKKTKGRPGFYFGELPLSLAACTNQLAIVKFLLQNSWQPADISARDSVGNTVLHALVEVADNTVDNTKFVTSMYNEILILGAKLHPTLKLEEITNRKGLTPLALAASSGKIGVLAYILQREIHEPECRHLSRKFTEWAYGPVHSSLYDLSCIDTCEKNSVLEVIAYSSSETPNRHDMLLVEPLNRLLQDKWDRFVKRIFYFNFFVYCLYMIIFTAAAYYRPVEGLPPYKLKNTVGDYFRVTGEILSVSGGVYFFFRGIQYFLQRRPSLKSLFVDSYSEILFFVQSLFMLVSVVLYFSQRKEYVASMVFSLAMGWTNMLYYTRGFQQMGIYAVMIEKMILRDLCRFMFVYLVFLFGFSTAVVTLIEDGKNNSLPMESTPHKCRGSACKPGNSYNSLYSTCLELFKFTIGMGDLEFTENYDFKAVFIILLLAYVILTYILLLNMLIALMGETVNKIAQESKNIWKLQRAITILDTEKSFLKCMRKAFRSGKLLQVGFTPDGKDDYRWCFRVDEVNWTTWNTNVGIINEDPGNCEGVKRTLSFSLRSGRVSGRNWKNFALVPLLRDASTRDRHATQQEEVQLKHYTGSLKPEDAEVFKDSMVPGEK

SMILES | inhibition at 10 µM [1, 3] [%] | VR1 (rat) (% stimulation compared to 10 μM CP) ([1]; test compound 10 μM) [%] | inhibition at 10 µM [2, 4] [%] | activation at 10 µM [2, 5] [%] | activation at 10 µM ([1]; test compound 10 μM) [%] | EC50 [1] [µM] | EC50 [2] [µM] | VR1 (rat) (% inhibition compared to 10 μM CP) [1, 3] [%] | VR1 (human) (% inhibition compared to 10 μM CP) ([2]; test compound 10 μM, 5 min incubation, then 100 nM capsaicin, compared to 10 μM CP) [%] | VR1 (human) (% stimulation compared to 10 μM CP) ([2]; test compound 10 μM, Ca2+ signal relative to 10 μM capsaicin (CP)) [%]
Cc1ccc(N2CCN(C3=NC(=O)C(=CC=Cc4ccccc4)S3)CC2)nn1 [Example 161, 2-[4-(6-methylpyridazin-3-yl)piperazin-1-yl]-5-(3-phenylallylidene)thiazol-4-one] | 17 | – | 47.2 | 2.43 | 2.5 | – | – | – | – | –
CCN(CC)C1=NC(=O)C(=Cc2cccc(C(F)(F)F)c2)S1 [Example 214, 2-diethylamino-5-(3-trifluoromethylbenzylidene)thiazol-4-one] | 50.1 | – | 56.7 | 6.08 | 13.7 | – | – | – | – | –
O=C1N=C(N2CCCCCC2)SC1=CC=Cc1ccccc1 [Example 192, 2-azepan-1-yl-5-(3-phenylallylidene)thiazol-4-one hydrobromide] | 2.18 | – | 10.3 | 16.7 | 1.34 | > 50 | > 50 | – | – | –
O=C1N=C(N2CCOCC2)SC1=CC=CSc1ccccc1 [Example 12, 2-morpholin-4-yl-5-(3-phenylsulfanylallylidene)thiazol-4-one] | 68.4 | – | 54.3 | 55.4 | 54 | – | – | – | – | –
Cc1ccc(C=CC=C2SC(N3CCOCC3)=NC2=O)cc1 [Example 19, 2-morpholin-4-yl-5-(3-p-tolylallylidene)thiazol-4-one] | 31.4 | – | 10.8 | 8.82 | 11.7 | 7.76 | 13 | – | – | –
CC(C)(C)c1ccc(C=C2SC(N3CCCC3)=NC2=O)cc1 [Example 199, 5-(4-tert-butylbenzylidene)-2-pyrrolidin-1-ylthiazol-4-one hydrobromide] | 69.5 | – | 4.43 | 9.64 | 42.9 | – | – | – | – | –
CC(C)(C)c1ccc(C=C2SC(N3CCOCC3)=NC2=O)cc1 [Example 197, 5-(4-tert-butylbenzylidene)-2-morpholin-4-ylthiazol-4-one] | 94.3 | 63.86 | 72.4 | 48 | – | – | – | – | – | –

Next, values leading:

inhibition at 10 µM [1, 3] [%] | VR1 (rat) (% stimulation compared to 10 μM CP) ([1]; test compound 10 μM) [%] | inhibition at 10 µM [2, 4] [%] | activation at 10 µM [2, 5] [%] | activation at 10 µM ([1]; test compound 10 μM) [%] | EC50 [1] [µM] | EC50 [2] [µM] | VR1 (rat) (% inhibition compared to 10 μM CP) [1, 3] [%] | VR1 (human) (% inhibition compared to 10 μM CP) ([2]; test compound 10 μM, 5 min incubation, then 100 nM capsaicin, compared to 10 μM CP) [%] | VR1 (human) (% stimulation compared to 10 μM CP) ([2]; test compound 10 μM, Ca2+ signal relative to 10 μM capsaicin (CP)) [%] | SMILES
87.2 | 80.77 | 37.6 | 29.1 | – | – | – | – | – | – | O=C1N=C(N2CCSCC2)SC1=CC=Cc1ccccc1 [Example 25, 5-(3-phenylallylidene)-2-thiomorpholin-4-ylthiazol-4-one]
90.9 | – | 22.6 | 0.47 | 87 | 5.82 | 10.6 | – | – | – | O=C1N=C(N2CCSCC2)SC1=Cc1cccc2ccccc12 [Example 41, 5-naphthalen-1-ylmethylene-2-thiomorpholin-4-ylthiazol-4-one]
– | 51.35 | – | – | – | 14.3 | > 25 | 83.13 | 32.35 | 34.09 | Br.O=C1N=C(N2CCSCC2)SC1=CC=Cc1ccccc1 [Example 190, 5-(3-phenylallylidene)-2-thiomorpholin-4-ylthiazol-4-one hydrobromide]
87.9 | – | 81.7 | 79.6 | 96.1 | 2.5 | > 25 | – | – | – | O=C1N=C(N2CCSCC2)SC1=Cc1ccc2ccccc2c1 [Example 54, 5-naphthalen-2-ylmethylene-2-thiomorpholin-4-ylthiazol-4-one]
90.1 | – | 71.1 | 61.4 | 72.8 | – | – | – | – | – | O=C1N=C(N2CCSCC2)SC1=Cc1cccc(C(=O)N2CCN(c3ncccc3Cl)CC2)c1 [Example 88, 5-{3-[4-(3-chloropyridin-2-yl)piperazine-1-carbonyl]benzylidene}-2-thiomorpholin-4-ylthiazol-4-one]
